From article PMC12169610 (Journal of Medicinal Chemistry, 2025)
Like-named read-outs stand apart in the source and are kept apart here. Marks after values point to notes of the source that are not given here.

Assays:
P-gp = test: in vitro; assay type: in vitro ADME; conditions: pig, LLC-PK1
fasted rat = test: Acute refeeding assay; assay type: in vivo; conditions: for Inhibition of Food Intake at 1 h (%), 5 mg/kg dose: 5 mg/kg PO
[1] = predicted from PK data across species
5-HT2CR = target: T1, 5-HT2CR (Homo sapiens, UniProt P28335); assay type: binding
T1 sequence (P28335 33-458): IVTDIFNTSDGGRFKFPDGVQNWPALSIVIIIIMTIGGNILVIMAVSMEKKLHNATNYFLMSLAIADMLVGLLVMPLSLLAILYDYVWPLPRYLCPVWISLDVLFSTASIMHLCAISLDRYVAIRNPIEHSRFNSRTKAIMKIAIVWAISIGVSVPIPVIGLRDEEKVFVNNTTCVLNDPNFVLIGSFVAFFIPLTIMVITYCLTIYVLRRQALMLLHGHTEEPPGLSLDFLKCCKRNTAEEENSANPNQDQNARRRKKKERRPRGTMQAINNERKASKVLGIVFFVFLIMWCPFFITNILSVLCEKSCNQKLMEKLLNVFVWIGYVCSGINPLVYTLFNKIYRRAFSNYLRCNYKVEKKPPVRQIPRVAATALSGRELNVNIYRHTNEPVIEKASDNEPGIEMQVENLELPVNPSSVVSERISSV

CYP2B6 = target: T2, CYP2B6 (Homo sapiens, UniProt P20813); test: CYP inhibition; assay type: in vitro ADME
T2 sequence (P20813 1-491): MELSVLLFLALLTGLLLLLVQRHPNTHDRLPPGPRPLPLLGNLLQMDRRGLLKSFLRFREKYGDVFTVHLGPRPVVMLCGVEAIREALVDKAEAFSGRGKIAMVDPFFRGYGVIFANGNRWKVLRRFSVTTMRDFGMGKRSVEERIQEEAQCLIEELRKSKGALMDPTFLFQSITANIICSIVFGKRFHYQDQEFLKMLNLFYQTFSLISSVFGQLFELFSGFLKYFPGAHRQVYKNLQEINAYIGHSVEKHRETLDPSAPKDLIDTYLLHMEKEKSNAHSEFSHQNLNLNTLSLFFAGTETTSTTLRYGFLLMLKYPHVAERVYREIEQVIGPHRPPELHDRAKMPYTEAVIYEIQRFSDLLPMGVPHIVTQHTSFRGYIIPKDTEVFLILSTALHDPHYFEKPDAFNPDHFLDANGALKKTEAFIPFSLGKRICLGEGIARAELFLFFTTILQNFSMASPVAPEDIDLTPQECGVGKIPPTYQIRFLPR

[2] = tested on: Eurofins safety screen panel; conditions: at 10 μM
CYP3A4 = CYP3A4 (Homo sapiens, UniProt P08684)
Sequence of CYP3A4 (P08684 whole entry): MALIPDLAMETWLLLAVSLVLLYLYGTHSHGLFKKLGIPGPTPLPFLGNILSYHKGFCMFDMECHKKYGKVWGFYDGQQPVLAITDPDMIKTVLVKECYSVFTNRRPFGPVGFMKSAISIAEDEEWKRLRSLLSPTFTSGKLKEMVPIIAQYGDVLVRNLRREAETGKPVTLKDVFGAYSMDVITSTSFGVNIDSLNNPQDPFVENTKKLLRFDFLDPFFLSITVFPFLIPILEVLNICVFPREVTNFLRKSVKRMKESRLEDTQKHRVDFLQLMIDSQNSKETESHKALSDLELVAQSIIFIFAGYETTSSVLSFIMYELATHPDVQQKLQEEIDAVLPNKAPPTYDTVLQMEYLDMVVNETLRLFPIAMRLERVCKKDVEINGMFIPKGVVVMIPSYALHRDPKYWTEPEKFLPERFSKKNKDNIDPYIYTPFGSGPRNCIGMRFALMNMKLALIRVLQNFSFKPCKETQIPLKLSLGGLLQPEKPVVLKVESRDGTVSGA

CYP2D6 = CYP2D6 (Homo sapiens, UniProt P10635)
Sequence of CYP2D6 (P10635 whole entry): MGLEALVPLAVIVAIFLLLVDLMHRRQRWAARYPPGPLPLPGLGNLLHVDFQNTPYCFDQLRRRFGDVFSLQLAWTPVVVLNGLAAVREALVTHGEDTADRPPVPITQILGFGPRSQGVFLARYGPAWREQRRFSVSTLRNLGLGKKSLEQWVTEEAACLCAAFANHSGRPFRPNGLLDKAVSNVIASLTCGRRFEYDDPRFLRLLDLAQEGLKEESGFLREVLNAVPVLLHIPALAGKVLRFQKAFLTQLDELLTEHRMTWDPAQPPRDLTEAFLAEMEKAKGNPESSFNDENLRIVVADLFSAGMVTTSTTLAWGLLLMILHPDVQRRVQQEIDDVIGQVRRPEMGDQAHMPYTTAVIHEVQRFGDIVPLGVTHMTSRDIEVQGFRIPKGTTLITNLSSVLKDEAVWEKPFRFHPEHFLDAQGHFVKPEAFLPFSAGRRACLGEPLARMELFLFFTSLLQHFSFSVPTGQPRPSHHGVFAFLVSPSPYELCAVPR

CYP2C8 = target: T3, CYP2C8 (Homo sapiens, UniProt P10632)
T3 sequence (P10632 1-490): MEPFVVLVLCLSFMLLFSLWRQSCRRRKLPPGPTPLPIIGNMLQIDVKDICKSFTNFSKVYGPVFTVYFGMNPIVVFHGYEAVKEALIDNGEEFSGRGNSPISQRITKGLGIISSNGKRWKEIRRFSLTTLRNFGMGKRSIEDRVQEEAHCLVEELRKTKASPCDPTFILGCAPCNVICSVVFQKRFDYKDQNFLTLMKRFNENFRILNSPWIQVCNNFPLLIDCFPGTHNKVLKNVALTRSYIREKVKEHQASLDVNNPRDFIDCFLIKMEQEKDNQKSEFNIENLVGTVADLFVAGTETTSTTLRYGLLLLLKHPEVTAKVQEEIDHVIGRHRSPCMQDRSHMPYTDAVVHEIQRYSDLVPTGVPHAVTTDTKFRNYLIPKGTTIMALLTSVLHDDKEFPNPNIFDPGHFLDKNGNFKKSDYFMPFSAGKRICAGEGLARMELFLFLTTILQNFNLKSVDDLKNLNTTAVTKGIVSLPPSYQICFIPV

CYP2C9 = CYP2C9 (Homo sapiens, UniProt P11712)
Sequence of CYP2C9 (P11712 whole entry): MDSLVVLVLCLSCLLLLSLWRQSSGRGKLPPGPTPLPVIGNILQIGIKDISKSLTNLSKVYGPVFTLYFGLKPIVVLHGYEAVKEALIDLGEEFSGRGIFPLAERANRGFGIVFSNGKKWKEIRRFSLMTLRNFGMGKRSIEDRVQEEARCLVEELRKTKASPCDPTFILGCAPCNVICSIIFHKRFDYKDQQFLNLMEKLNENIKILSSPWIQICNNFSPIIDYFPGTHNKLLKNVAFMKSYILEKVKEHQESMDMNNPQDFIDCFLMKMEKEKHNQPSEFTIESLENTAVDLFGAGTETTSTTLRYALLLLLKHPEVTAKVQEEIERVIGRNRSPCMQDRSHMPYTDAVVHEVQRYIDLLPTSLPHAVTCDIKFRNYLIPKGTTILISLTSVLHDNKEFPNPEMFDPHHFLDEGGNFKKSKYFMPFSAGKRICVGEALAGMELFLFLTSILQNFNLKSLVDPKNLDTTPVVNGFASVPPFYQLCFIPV

CYP2C19 = CYP2C19 (Homo sapiens, UniProt P33261)
Sequence of CYP2C19 (P33261 whole entry): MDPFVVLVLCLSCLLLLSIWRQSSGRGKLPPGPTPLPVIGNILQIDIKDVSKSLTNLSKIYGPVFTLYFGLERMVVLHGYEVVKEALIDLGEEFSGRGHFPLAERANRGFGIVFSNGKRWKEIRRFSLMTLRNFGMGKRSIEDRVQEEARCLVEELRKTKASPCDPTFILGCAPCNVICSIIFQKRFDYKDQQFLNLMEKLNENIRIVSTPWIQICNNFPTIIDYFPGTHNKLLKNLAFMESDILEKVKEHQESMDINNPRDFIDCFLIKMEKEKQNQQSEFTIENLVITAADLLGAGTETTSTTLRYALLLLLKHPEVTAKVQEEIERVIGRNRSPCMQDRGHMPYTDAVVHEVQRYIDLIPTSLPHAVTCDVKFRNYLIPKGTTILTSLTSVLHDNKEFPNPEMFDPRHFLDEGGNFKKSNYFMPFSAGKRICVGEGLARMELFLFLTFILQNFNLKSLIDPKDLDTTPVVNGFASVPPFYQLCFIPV

CYP1A2 = target: T4, CYP1A2 (Homo sapiens, UniProt P05177)
T4 sequence (P05177 1-516): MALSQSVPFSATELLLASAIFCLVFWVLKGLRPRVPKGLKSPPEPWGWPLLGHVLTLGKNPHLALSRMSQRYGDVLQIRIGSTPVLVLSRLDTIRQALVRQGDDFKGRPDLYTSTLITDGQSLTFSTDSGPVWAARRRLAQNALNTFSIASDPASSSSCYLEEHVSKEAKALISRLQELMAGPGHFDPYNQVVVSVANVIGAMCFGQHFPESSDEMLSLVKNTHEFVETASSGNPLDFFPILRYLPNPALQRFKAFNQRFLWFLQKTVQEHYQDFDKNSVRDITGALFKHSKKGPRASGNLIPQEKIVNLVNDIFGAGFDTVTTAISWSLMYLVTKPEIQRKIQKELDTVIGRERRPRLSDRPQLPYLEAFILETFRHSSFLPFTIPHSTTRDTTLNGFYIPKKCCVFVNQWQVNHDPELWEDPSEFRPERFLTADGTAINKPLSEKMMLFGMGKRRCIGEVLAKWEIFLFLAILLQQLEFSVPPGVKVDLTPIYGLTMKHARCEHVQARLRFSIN

in vivo = conditions: cynomolgus monkey, iv, 2 mg/kg
major CYP enzymes = test: CYP time-dependent inhibition
[3] = Dynamic moisture sorption test; assay type: physicochemical; conditions: 90% relative humidity, 25 °C

**Q.** For CNC(=O)c1ccc2c3c1C(CC(F)(F)F)CN3CCNC2 (single isomer, unassigned; (+)) [(+)-19a], which Papp A→B (P-gp) is on record?
**A.** Its Papp A→B is 14.8 ×10⁻⁶ cm/s.

**Q.** For CCCNC(=O)c1ccc2c3c1C(CC(F)(F)F)CN3CCNC2 (single isomer, unassigned; (+)) [(+)-19c], which “Inhibition of Food Intake at 1 h (%) with 10 mg/kg po” value (fasted rat; 10 mg/kg PO) is on record?
**A.** The value was 53 ^c %.

**Q.** Which Papp A→B (P-gp) does the source give for CCC1CN2CCNCc3ccc(C(=O)NC)c1c32 (single isomer, unassigned; (+)) [(+)-19i] here?
**A.** The Papp A→B was 7.73 ×10⁻⁶ cm/s.

**Q.** With CCC1CN2CCNCc3ccc(C(=O)NCC(F)F)c1c32 (single isomer, unassigned; (+)) [(+)-19k, (+)-N-(2,2-Difluoroethyl)-7-ethyl-1,2,3,4,6,7-hexahydro-[1,4]diazepino[6,7,1-hi]indole-8-carboxamide] as the compound, how does the “Inhibition of Food Intake at 1 h (%), 5 mg/kg dose” value (fasted rat) read?
**A.** Its value is 27 ^d %.

**Q.** And the Papp A→B (P-gp)?
**A.** The Papp A→B was 12.8 ×10⁻⁶ cm/s.

**Q.** What about the efflux ratio (P-gp) of the same compound?
**A.** Its efflux ratio is 2.16.

**Q.** With CNC(=O)c1ccc2c3c1CCN3CCNC2 [7b, N-Methyl-1,2,3,4,6,7-hexahydro-[1,4]diazepino[6,7,1-hi]indole-8-carboxamide] as the compound, how does the “Hypophagic effect after preadministration of 5-HT2CR antagonist SB242084” value (fasted rat; 10 mg/kg po, 1 h, SB242084 1 mg/kg PO) read?
**A.** The value was “blocked”.

**Q.** And the “Predicted half-life in human by allometric scaling” value [1]?
**A.** The value was 3 h.

**Q.** With CSCCNC(=O)c1ccc2c3c1CCN3CCNC2 [7j, N-(2-(Methylthio)ethyl)-1,2,3,4,6,7-hexahydro-[1,4]diazepino[6,7,1-hi]indole-8-carboxamide] as the compound, how does the “Selectivity for 5-HT2CR over 5-HT2AR and 5-HT2BR in binding assays” value (5-HT2CR) read?
**A.** Its value is over 500 fold.

**Q.** Which “Selectivity for 5-HT2CR over 5-HT2AR and 5-HT2BR in binding assays” value (5-HT2CR; 125I-DOI binding assay) does the source give for O=C(NCCOc1ccccc1)c1ccc2c3c1CCN3CCNC2 [7p, N-(2-Phenoxyethyl)-1,2,3,4,6,7-hexahydro-[1,4]diazepino[6,7,1-hi]indole-8-carboxamide] here?
**A.** The value was about 100 fold.

**Q.** For C[C@H]1CN2CCNCc3ccc(C(=O)NCC(F)F)c1c32 [(+)-19m, (+)-N-(2,2-Difluoroethyl)-7-methyl-1,2,3,4,6,7-hexahydro-[1,4]diazepino[6,7,1-hi]indole-8-carboxamide], which “Inhibition of Food Intake at 1 h (%), 5 mg/kg dose” value (fasted rat) is on record?
**A.** Its value is 81 ^d %.

**Q.** What about the Papp A→B (P-gp) of the same compound?
**A.** Its Papp A→B is 8.9 ×10⁻⁶ cm/s.

**Q.** What about the IC50 (CYP2B6) of the same compound?
**A.** The IC50 was over 30 µM.

**Q.** And the “Binding against >140 target Eurofins safety screen panel” value [2]?
**A.** The value was under 25%.

**Q.** And the IC50 (CYP3A4)?
**A.** The IC50 was over 30 µM.

**Q.** And the IC50 (CYP2D6)?
**A.** The IC50 was over 30 µM.

**Q.** And the IC50 (CYP2C8)?
**A.** The IC50 was over 30 µM.

**Q.** And the IC50 (CYP2C9)?
**A.** The IC50 was over 30 µM.

**Q.** And the IC50 (CYP2C19)?
**A.** Its IC50 is over 30 µM.

**Q.** And the IC50 (CYP1A2)?
**A.** Its IC50 is over 30 µM.

**Q.** What about the Rat brain protein-binding of the same compound?
**A.** The Rat brain protein-binding was 53%.

**Q.** And the “Predicted half-life in human by allometric scaling” value [1]?
**A.** Its value is “approximately 7 h”.

**Q.** What about the CL renal (in vivo) of the same compound?
**A.** The CL renal was 1.8 mL/h/kg.

**Q.** What about the CYP time-dependent inhibition (major CYP enzymes) of the same compound?
**A.** The CYP time-dependent inhibition was “no time-dependent inhibition”.

**Q.** For C[C@H]1CN2CCNCc3ccc(C(=O)NCC(F)F)c1c32.Cl [(+)-19m. HCl], which “Weight gain in dynamic moisture sorption test” value [3] is on record?
**A.** Its value is under 0.1%.
